In patent publication US10959992B2, “Methods of treatment of asthma and COPD” (Bridge Pharma, Inc., priority 2019, dated 2021):

Legend:
PAF-induced eosinophilia = test: PAF-induced pulmonary eosinophil accumulation after continuous subcutaneous dosing; assay type: in vivo, Sprague-Dawley rats; conditions: 1 mg/kg/day sc for 6 days, rats; BSA + saline control 100, PAF control 250
Experimental: Male Sprague-Dawley rats, 400-600 g, were used in these studies.
The study described here used subcutaneous administration of norketotifen and ketotifen by Alzet® osmotic pumps. The rats were administered either RS-norketotifen hydrogen fumarate (1.0 mg/kg/day) or RS-ketotifen hydrogen fumarate (1.0 mg/kg/day) or saline. After five days of sc infusions of test articles and the vehicle, the animals were injected, i.p. with 10 μg PAF (platelet aggregating factor) in 0.25% bovine serum albumin (BSA) in saline. The subcutaneous infusions of test articles or vehicle were continued for another twenty-four hours and the animals were then sacrificed by intraperitoneal injections of a barbiturate. The tracheae of the euthanized animals were exposed and cannulated and aliquots (6×10 ml) of a Tyrode solution were successively introduced into the lungs and aspirated by gentle compression of the thorax. The total recovery of lung fluid was usually above 80%. The cell suspensions were concentrated by low speed centrifugation (200 g for 10 min) and the resulting cell pellet was resuspended in 1 ml of a Tyrode solution. Total cell counts were performed after dilution in Turks fluid, fixation in methanol and Leishman staining.
The study shown here used norketotifen, ketotifen, and saline (control) after continuous dosing with Alzet® Osmotic pumps.

IL-13 = test: PHA-induced release of IL-13 from human buffy coats; assay type: cell-based; conditions: 10 uM; PHA 5 μg/ml, 16 hours; inhibition
Experimental: (§1) The study was conducted in two phases. The first phase included optimization of the test methodology and included also dose-range finding studies, using buffy coats from 3 human donors, stimulated with phytohemagglutinin (PHA). The concentrations of the test article and the duration of exposure were optimized to obtain acceptable dose-response ratios. Following optimization of the test conditions, a final protocol was issued. In the Main Study, buffy coats from 5 healthy human male donors were stimulated with PHA, 5 μg/ml.
(§2) The inhibitory effects of three concentrations of NK and one concentration of ketotifen were evaluated in the Main Study. The buffy coats were resuspended in assay media and were pre-incubated for 30 min with either vehicle/saline, ketotifen (10 μM) or norketotifen (1.0; 10 or 100 μM). Following these preincubations, the white blood cell suspensions were stimulated for 16 hours with PHA, 5 μg/ml. The cell system supernatants were then harvested and stored frozen.

IL-1β = test: PHA-induced release of IL-1β from human buffy coats; assay type: cell-based; conditions: 10 uM; PHA 5 μg/ml, 16 hours; inhibition
Experimental: as §1, §2

IL-6 = test: PHA-induced release of IL-6 from human buffy coats; assay type: cell-based; conditions: 10 uM; PHA 5 μg/ml, 16 hours; inhibition
Experimental: as §1, §2

TNF-α = test: PHA-induced release of TNF-α from human buffy coats; assay type: cell-based; conditions: 10 uM; PHA 5 μg/ml, 16 hours; inhibition
Experimental: as §1, §2

IFN-γ = test: PHA-induced release of IFN-γ from human buffy coats; assay type: cell-based; conditions: 10 uM; PHA 5 μg/ml, 16 hours; inhibition
Experimental: as §1, §2

IL-8 = test: PHA-induced release of IL-8 from human buffy coats; assay type: cell-based; conditions: 10 uM; PHA 5 μg/ml, 16 hours; inhibition
Experimental: as §1, §2

IL-4 = test: PHA-induced release of IL-4 from human buffy coats; assay type: cell-based; conditions: 10 uM; PHA 5 μg/ml, 16 hours; inhibition
Experimental: as §1, §2

IL-2 = test: PHA-induced release of IL-2 from human buffy coats; assay type: cell-based; conditions: 10 uM; PHA 5 μg/ml, 16 hours; inhibition
Experimental: as §1, §2

IL-10 = test: PHA-induced release of IL-10 from human buffy coats; assay type: cell-based; conditions: 10 uM; PHA 5 μg/ml, 16 hours; inhibition
Experimental: as §1, §2

sedation = conditions: art-accepted mouse model of sedation; U.S. Pat. Nos. 7,226,934 and 7,557,128; cited from earlier work
[1] = system: oxazolone-induced increase in ear thickness; test: Oxazolone test of immunosuppression (ear thickness); assay type: in vivo, BALB/c mice; conditions: for Increase in ear thickness (mm): control 0.153; for Increase in ear thickness (%): control 100.0
Experimental: Male BALB/c mice, 20-24 grams, 7-12 weeks, were used. The sensitization dosing (Day 1) consisted of painting the ventral portion of the pre-shaved abdominal skin with 0.1 ml of 3.0% oxazolone in 70% ethanol. Test articles were administered orally in 1.0% methyl-cellulose, starting on Day 1 and continuing for 10 consecutive days. The challenge dosing consisted of the application of 0.05 ml of 3.0% oxazolone in 70% ethanol on both sides of the outer pinna of the right ear. The thickness of both ears of all animals was measured with a calliper before the challenge dose and 24 hours after the administration of the challenge dose (Day 10). The ear thickness of untreated mice was 0.19 to 0.20 mm.
Justification of the model: The classic oxazolone test method was used with minor modifications. This method has been used for over 40 years in numerous drug development projects.

[2] = system: croton oil-induced ear swelling; test: Croton oil-induced ear swelling; assay type: in vivo, CD-1 female mice; set-up: Average ear thickness: unit not given beside the values; conditions: for Average ear thickness: single oral dose 10 mg/kg 60 min before
Experimental: The effects of NK, PRED and the vehicle (5% PEG in water) were tested orally in CD-1 female mice. Under the test protocol, 20 μl of 1.0% croton oil in acetone was applied topically to both ears of three groups of mice, each group consisting of 6 mice. No attempt was made to remove the croton oil solution since the solvent evaporated within 30 seconds. The oral doses of NK and PRED were 10 mg/kg (10 ml/kg) bodyweight for both compounds and were administered 60 min before the croton oil applications. Vehicle-treated mice were dosed 10 ml/kg of water, containing 5% polyethylene glycol (PEG), which was also the solvent for the test articles. Ear thickness was measured with an electronic caliper and mean ear thickness (N=12; right+left ears) were calculated and compared with the thickness of ears from vehicle-treated mice (Student's t-test).

O=C(O)C=CC(=O)O.O=C1Cc2ccccc2C(=C2CCNCC2)c2ccsc21 [Norketotifen HF, RS-norketotifen hydrogen fumarate]
PAF-induced esosinophilia (% ± SEM) (PAF-induced eosinophilia): 74 ± 4%

CN1CCC(=C2c3ccccc3CC(=O)c3sccc32)CC1 [Ketotifen, ketotifen, reference compound]
Effect on PHA-induced release of IL-13 (%) (IL-13): 0.00% | Effect on PHA-induced release of IL-1β (%) (IL-1β): 0.00% | Effect on PHA-induced release of IL-6 (%) (IL-6): 0.00% | Effect on PHA-induced release of TNF-α (%) (TNF-α): 39.98% | Effect on PHA-induced release of IFN-γ (%) (IFN-γ): 0.00% | Effect on PHA-induced release of IL-8 (%) (IL-8): 30.73% | Effect on PHA-induced release of IL-4 (%) (IL-4): 0.00% | Effect on PHA-induced release of IL-2 (%) (IL-2): 0.00% | Effect on PHA-induced release of IL-10 (%) (IL-10): 0.00%

O=C(O)/C=C/C(=O)O.O=C1Cc2ccccc2C(=C2CCNCC2)c2ccsc21 [R-isomer, R-norketotifen]
Sedative effects (sedation): sedative effects were attributed to the R-isomer

C[C@]12C=CC(=O)C=C1CC[C@@H]1[C@@H]2[C@@H](O)C[C@@]2(C)[C@H]1CC[C@]2(O)C(=O)CO [PRED, prednisolone]
Immunosuppression (%) ([1]; 0.3 mg/kg/day oral for 10 days): 29.4% | Increase in ear thickness (mm) ([1]; 0.3 mg/kg/day oral for 10 days): 0.108 mm | Increase in ear thickness (%) ([1]; 0.3 mg/kg/day oral for 10 days): 70.6% | Immunosuppression (%) ([1]; 1.0 mg/kg/day oral for 10 days): 45.0% | Increase in ear thickness (mm) ([1]; 1.0 mg/kg/day oral for 10 days): 0.084 mm | Increase in ear thickness (%) ([1]; 1.0 mg/kg/day oral for 10 days): 55.0% | Immunosuppression (%) ([1]; 3.0 mg/kg/day oral for 10 days): 50.3% | Increase in ear thickness (mm) ([1]; 3.0 mg/kg/day oral for 10 days): 0.076 mm | Increase in ear thickness (%) ([1]; 3.0 mg/kg/day oral for 10 days): 49.7% | Immuno-suppressant activity (conclusion in words) ([1]; daily oral dosing for 10 days to mice, RS-norketotifen 10 or 30 mg/kg, prednisolone at 10 times lower doses): potent and dose-dependent immune suppression | Average ear thickness ([2]; 0 (predose) min after croton oil, vehicle 0.21 ± 0.02): 0.22 ± 0.01 | Average ear thickness ([2]; 90 min after croton oil, vehicle 0.29 ± 0.04): 0.28 ± 0.01 | Average ear thickness ([2]; 120 min after croton oil, vehicle 0.28 ± 0.02): 0.27 ± 0.01 | Anti-inflammatory effect compared with vehicle control group (conclusion in words) ([2]; single oral dose 10 mg/kg, croton oil ear swelling in mice): did not express statistically significant anti-inflammatory effect

CN1CCC(=C2c3ccccc3CC(=O)c3sccc32)CC1.O=C(O)/C=C/C(=O)O [Ketotifen HF, RS-ketotifen hydrogen fumarate, reference compound]
PAF-induced esosinophilia (% ± SEM) (PAF-induced eosinophilia): 110 ± 3%
